Laboratory results reported in patent publication US20190282492A1, “COSMETIC COMPOSITIONS FOR SKIN REPARATION” (Natura Cosméticos S.A., priority 2016, published 2019).

B1: papain (protein, UniProt P00784 134-345, looked up)
Papain: IPEYVDWRQKGAVTPVKNQGSCGSCWAFSAVVTIEGIIKIRTGNLNEYSEQELLDCDRRSYGCNGGYPWSALQLVAQYGIHYRNTYPYEGVQRYCRSREKGPYAAKTDGVRQVQPYNEGALLYSIANQPVSVVLEAAGKDFQLYRGGIFVGPCGNKVDHAVAAVGYGPNYILIKNSWGTGWGENGYIRIKRGTGNSYGVCGLYTSSFYPVKN
notes: standard (enzyme)

Legend:
Assay type in all cases: cell-based
[1] = Cell proliferation, Neutral Red detection method; details: compared to the untreated control after 48 hours of treatment
Excerpt: (§1) In another aspect, this invention also refers to an in vitro method of assessing skin repair, that is suitable for studying a variety of active ingredients, comprised of the following steps: • Step 1—Initial Indication: quantification of the FGF-2 growth factor through the flow cytometry technique; • Step 2—Inflammation: quantification of inflammatory cytokines (IL-1B, IL-6, IL-8, IL-10, IL-12 p70) through the flow cytometry technique; • Step 3—Cell proliferation and migration: • Cell proliferation through the Neutral Red detection method; • Cell migration through the ECIS and Scratch method; • Step 4—Remodeling and Resolution • Quantification of matrix metalloproteinase MMP-13 through the Enzyme-Linked Immunosorbent Assay (ELISA) technique; • Determination of collagenase/gelatinase enzyme activity (MMP-1 and MMP-3) and elastase (MMP-1 2) through the enzyme inhibition assay.
(§2) All the tests were conducted in triplicate, with experiments repeated at least twice, using negative control groups (no stimulation with active ingredients) and positive control groups (stimulated with molecules modulating the marker to be assayed). […]
as §1, with “As a result,” for “In another aspect,”, “project encompassed the following” for “invention also refers to an”, “assays:” for “method of assessing skin repair, that is suitable for studying a variety of active ingredients, comprised of the following steps:”, “FGF2” for “FGF-2”, “assay. […]” for “assay.”

MMP-13 = experiment: Quantification of MMP-13 by ELISA; details: compared to the untreated control
Excerpt: as §1, §2
as §1, with “As a result,” for “In another aspect,”, “project encompassed the following” for “invention also refers to an”, “assays:” for “method of assessing skin repair, that is suitable for studying a variety of active ingredients, comprised of the following steps:”, “FGF2” for “FGF-2”

FGF-2 = experiment: Quantification of FGF-2 growth factor by flow cytometry; details: in comparison to the negative control
Excerpt: as §1, §2

IL-8 = experiment: Quantification of inflammatory cytokines by flow cytometry (IL-8); details: in terms of negative control
Excerpt: as §1, §2

IL-10 = experiment: Quantification of inflammatory cytokines by flow cytometry (IL-10); details: in terms of negative control
Excerpt: as §1, §2

Row | Molecule | increase in cell proliferation (in words) [1] | MMP-13 quantification, increase (MMP-13) | FGF-2 increase (FGF-2) | IL-8 increase (IL-8) | IL-10 increase (IL-10) [times]
1 | NC(=O)NC1NC(=O)NC1=O (stereo not drawn) [allantoin] | did not present significant increases | threefold increases | – | – | –
2 | madecassoside | did not present significant increases | threefold increases | up to 115 times | twofold increase | 2.3
3 | B1 | did not present significant increases | threefold increases | – | – | –
